For 14 molecules, IC50 and TEC/Btk results are on record in patent US20180194762A1 (Pharmacyclics LLC, priority 2017, published 2018).

Holding throughout (format): biochemical
The target in one assay is T1, Btk (Homo sapiens, UniProt Q06187).
T1 construct: purified from insect cells as a full-length construct containing a N-terminal 6X-His tag; His6 (N); made in house; host or cells: insect cells (Method C)
The experiment in a line: Btk in vitro inhibitory activity (one of Method A TR-FRET, Method B electrophoretic mobility shift, Method C radiometric filter binding). Put shortly: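 Three alternative formats were used. A radiometric filter-binding read used 8 nM full-length His-BTK with 0.2 mg/mL poly(Glu-Tyr) 4:1 (C); microfluidic separation of 1 μM FAM-peptide by 1 nM BTK gave IC50 from 12-point curves (B); TR-FRET at Km ATP, 0.5 nM Btk, gave Ki(app)-derived IC50 (A).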

The next assay addresses T2, panel of kinases (Homo sapiens, UniProt P51813).
T2 sequence (P51813 1-675): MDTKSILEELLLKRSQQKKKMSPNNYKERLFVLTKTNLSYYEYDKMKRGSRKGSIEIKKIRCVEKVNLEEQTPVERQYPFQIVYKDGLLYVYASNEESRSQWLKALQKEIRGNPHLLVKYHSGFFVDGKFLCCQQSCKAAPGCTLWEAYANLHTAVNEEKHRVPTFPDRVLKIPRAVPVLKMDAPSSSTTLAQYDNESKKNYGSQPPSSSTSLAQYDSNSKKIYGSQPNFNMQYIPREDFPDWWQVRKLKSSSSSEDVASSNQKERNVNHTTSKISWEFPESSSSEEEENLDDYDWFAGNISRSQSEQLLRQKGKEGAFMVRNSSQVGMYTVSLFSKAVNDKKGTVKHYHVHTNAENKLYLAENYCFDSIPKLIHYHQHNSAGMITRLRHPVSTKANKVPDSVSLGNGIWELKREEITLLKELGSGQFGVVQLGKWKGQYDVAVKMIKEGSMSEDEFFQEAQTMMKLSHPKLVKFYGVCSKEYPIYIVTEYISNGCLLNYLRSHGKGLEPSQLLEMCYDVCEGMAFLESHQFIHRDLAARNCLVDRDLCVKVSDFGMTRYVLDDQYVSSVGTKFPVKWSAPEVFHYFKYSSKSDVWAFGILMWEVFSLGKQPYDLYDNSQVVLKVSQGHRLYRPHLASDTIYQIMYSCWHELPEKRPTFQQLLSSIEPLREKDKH
The assay is described as follows: Inhibition of a panel of kinases (in vitro HotSpot kinase assay, 33P-ATP, 1 μM ATP), other kinases. To be noted: BMX wild-type, read-out: BMX-WT IC50. An outline of the steps: (§1)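 At 1 μM ATP spiked with 33P-ATP, substrate phosphorylation by the purified enzymes gives the extent of inhibition.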

Another assay concerns the target T3, TEC (Homo sapiens, UniProt P42680).
T3 sequence (P42680 1-631): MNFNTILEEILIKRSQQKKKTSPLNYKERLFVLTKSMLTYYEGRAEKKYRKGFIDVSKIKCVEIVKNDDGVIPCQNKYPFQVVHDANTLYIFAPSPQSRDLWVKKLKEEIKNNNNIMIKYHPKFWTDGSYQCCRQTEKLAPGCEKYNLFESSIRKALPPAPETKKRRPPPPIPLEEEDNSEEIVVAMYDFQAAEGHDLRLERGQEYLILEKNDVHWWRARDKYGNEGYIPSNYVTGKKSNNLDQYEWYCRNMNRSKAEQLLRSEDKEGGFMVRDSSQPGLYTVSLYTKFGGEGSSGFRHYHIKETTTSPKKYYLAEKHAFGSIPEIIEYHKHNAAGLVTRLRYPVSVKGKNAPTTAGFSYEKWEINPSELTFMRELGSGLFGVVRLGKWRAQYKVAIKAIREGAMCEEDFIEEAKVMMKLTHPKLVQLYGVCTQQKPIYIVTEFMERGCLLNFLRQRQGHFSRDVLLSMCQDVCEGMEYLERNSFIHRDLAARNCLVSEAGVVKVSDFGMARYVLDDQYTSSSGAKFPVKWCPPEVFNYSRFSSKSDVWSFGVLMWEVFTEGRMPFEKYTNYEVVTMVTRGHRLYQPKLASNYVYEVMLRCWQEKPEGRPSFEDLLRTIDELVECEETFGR
The experiment in a line: Inhibition of a panel of kinases (in vitro HotSpot kinase assay, 33P-ATP, 1 μM ATP). To be noted: for IC50: HotSpot kinase assay, 1 μM ATP; for TEC/Btk: ratio of TEC IC50 to Btk IC50 (selectivity). Put shortly:
as §1

[1] abbreviates: wild-type Btk, read-out: Btk-WT IC50.
The mark [2] stands for this setting: method is one of A, B or C, not stated which, read-out: IC50 values against Btk.

Read-outs that look alike come from different tables or passages of the source.

T1 sequence (Q06187 whole entry): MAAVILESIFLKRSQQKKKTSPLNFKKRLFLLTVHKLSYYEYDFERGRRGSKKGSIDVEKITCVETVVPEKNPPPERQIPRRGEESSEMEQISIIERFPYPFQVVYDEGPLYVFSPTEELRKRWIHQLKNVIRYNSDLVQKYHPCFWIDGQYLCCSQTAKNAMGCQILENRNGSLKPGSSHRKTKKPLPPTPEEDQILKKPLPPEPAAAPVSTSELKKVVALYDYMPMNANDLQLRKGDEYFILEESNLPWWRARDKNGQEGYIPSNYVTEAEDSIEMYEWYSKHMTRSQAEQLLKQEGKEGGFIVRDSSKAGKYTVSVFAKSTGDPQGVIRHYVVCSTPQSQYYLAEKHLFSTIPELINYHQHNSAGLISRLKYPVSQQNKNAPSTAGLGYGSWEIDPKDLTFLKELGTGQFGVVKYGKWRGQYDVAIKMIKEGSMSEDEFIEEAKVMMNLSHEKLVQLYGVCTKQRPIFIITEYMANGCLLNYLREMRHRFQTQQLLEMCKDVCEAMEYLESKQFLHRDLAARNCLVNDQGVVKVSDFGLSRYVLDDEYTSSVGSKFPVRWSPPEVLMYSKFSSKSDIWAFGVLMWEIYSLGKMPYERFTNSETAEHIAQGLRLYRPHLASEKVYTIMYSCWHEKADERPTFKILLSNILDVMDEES

Turning to `C=CC(=O)N[C@@H]1CCN(c2n[nH]c3nccc(-c4ccc(CNC(=O)c5cc(C(C)(C)C)on5)c(F)c4)c23)C1` [Example 308, 5-tert-butyl-N-{[2-fluoro-4-(3-{(3R)-3-[(prop-2-enoyl)amino]pyrrolidin-1-yl}-1H-pyrazolo[3,4-b]pyridin-4-yl)phenyl]methyl}-1,2-oxazole-3-carboxamide], the 50% inhibitory concentration (IC50) at Btk (setting [1]) came out at 0.0594 nM; at panel of kinases, 35.6 nM; at TEC it was 47 nM.
In the same order, the values of `C=CC(=O)N1CC[C@@H](Nc2n[nH]c3nccc(-c4ccc(CNC(=O)c5cn6c(C)cccc6n5)c(F)c4)c23)C1` [Example 390, N-{[2-fluoro-4-(3-{[(3R)-1-(prop-2-enoyl)pyrrolidin-3-yl]amino}-1H-pyrazolo[3,4-b]pyridin-4-yl)phenyl]methyl}-5-methylimidazo[1,2-a]pyridine-2-carboxamide] are 38.1 nM, 162 nM and 713 nM.
In the case of `C=CC(=O)N1CCC[C@@H](Nc2n[nH]c3nccc(-c4ccc(C5(NC(=O)c6noc(C(C)(C)C)n6)CC5)c(F)c4)c23)C1` [Example 133, 5-tert-butyl-N-{1-[2-fluoro-4-(3-{[(3R)-1-(prop-2-enoyl)piperidin-3-yl]amino}-1H-pyrazolo[3,4-b]pyridin-4-yl)phenyl]cyclopropyl}-1,2,4-oxadiazole-3-carboxamide], the IC50 on Btk (setting [1]) stood at 0.785 nM; at panel of kinases, 111 nM; at TEC, 259 nM. For the same molecule, the TEC/Btk on TEC is on record as 330.
For the molecule `CC#CC(=O)N1CC(Nc2n[nH]c3nccc(-c4ccc(CNC(=O)c5noc(C(C)(C)C)n5)c(F)c4)c23)C1` [Example 131, N-{[4-(3-{[1-(but-2-ynoyl)azetidin-3-yl]amino}-1H-pyrazolo[3,4-b]pyridin-4-yl)-2-fluorophenyl]methyl}-5-tert-butyl-1,2,4-oxadiazole-3-carboxamide], the IC50 is less than 10 nM at Btk (setting [2]), 0.201 nM on Btk (setting [1]), 152 nM on panel of kinases and 106 nM at TEC. Besides, at TEC, the TEC/Btk is recorded as 527.
For the molecule `CC(=O)N1C[C@H](Nc2n[nH]c3nccc(-c4ccc(CNC(=O)c5noc(C(C)(C)C)n5)c(F)c4)c23)CC[C@@H]1C` [Example 229, N-{[4-(3-{[(3R,6S)-1-acetyl-6-methylpiperidin-3-yl]amino}-1H-pyrazolo[3,4-b]pyridin-4-yl)-2-fluorophenyl]methyl}-5-tert-butyl-1,2,4-oxadiazole-3-carboxamide], the values for the IC50 at Btk (setting [1]), at panel of kinases and against TEC were 0.383 nM, 531 nM and 298 nM, respectively. In addition, on TEC, the TEC/Btk amounted to 778.
In the same order, the values of `C[C@H]1CC[C@@H](Nc2n[nH]c3nccc(-c4ccc(CNC(=O)c5nc(C(C)(C)C)no5)c(F)c4)c23)CN1C(=O)n1ccnc1` [Example 196, 3-tert-butyl-N-{[2-fluoro-4-(3-{[(3R,6S)-1-(1H-imidazole-1-carbonyl)-6-methylpiperidin-3-yl]amino}-1H-pyrazolo[3,4-b]pyridin-4-yl)phenyl]methyl}-1,2,4-oxadiazole-5-carboxamide] are 1.96 nM, 3430 nM, 1600 nM and 816.
In the same order, the values of `C[C@@H](NC(=O)c1nc(C(C)(C)C)no1)c1ccc(-c2ccnc3[nH]nc(N4CCNCC4)c23)cc1` [Example 238, 3-tert-butyl-N-[(1R)-1-{4-[3-(piperazin-1-yl)-1H-pyrazolo[3,4-b]pyridin-4-yl]phenyl}ethyl]-1,2,4-oxadiazole-5-carboxamide] are 4.24 nM, 2670 nM, 4610 nM and 1087.
Regarding `C[C@H]1CC[C@@H](Nc2n[nH]c3nccc(-c4ccc(CNC(=O)c5cc(C(C)(C)C)on5)c(F)c4)c23)CN1C(=O)N(C)C` [Example 145, (2S,5R)-5-{[4-(4-{[(5-tert-butyl-1,2-oxazol-3-yl)formamido]methyl}-3-fluorophenyl)-1H-pyrazolo[3,4-b]pyridin-3-yl]amino}-N,N,2-trimethylpiperidine-1-carboxamide], the IC50 at Btk (setting [2]) is less than 10 nM; at Btk (setting [1]) it was 1.93 nM; on panel of kinases it was 1040 nM; at TEC, 1060 nM. Moreover, the TEC/Btk at TEC came to 549.
As for `C[C@H]1CC[C@@H](Nc2n[nH]c3nccc(-c4ccc(CN5CCn6c(cc7c6CC(C)(C)C7)C5=O)c(F)c4)c23)CN1C(=O)N(C)C` [Example 239, (2S,5R)-5-[(4-{4-[(7,7-dimethyl-1-oxo-1,3,4,6,7,8-hexahydro-2H-cyclopenta[4,5]pyrrolo[1,2-a]pyrazin-2-yl)methyl]-3-fluorophenyl}-1H-pyrazolo[3,4-b]pyridin-3-yl)amino]-N,N,2-trimethylpiperidine-1-carboxamide], the results for the IC50 on Btk (setting [1]), at panel of kinases and at TEC were 10.1 nM, 3780 nM and 3880 nM, respectively. Also, at TEC, the TEC/Btk came to 384.
As to `CC(C)(C)c1ccc(C(=O)NC2(c3ccc(-c4ccnc5[nH]nc(N[C@H]6CC[C@H](O)CC6)c45)cc3)CC2)cc1` [Compound 22, 4-tert-butyl-N-{1-[4-(3-{[(1r,4r)-4-hydroxycyclohexyl]amino}-1H-pyrazolo[3,4-b]pyridin-4-yl)phenyl]cyclopropyl}benzamide], the results for the IC50 on Btk (setting [1]), on panel of kinases and at TEC were greater than 10000 nM, 6470 nM and greater than 10000 nM, respectively.
In the case of `CC(C)(C)CCC(=O)NCc1ccc(-c2ccnc3[nH]nc(N[C@H]4CC[C@H](O)CC4)c23)cc1F` [Compound 19, N-{[2-fluoro-4-(3-{[(1r,4r)-4-hydroxycyclohexyl]amino}-1H-pyrazolo[3,4-b]pyridin-4-yl)phenyl]methyl}-4,4-dimethylpentanamide], the IC50 was greater than 10000 nM at Btk (setting [1]), 7460 nM at panel of kinases and greater than 10000 nM on TEC.
As for `C=CC(=O)N1CC[C@@H](Nc2n[nH]c3nccc(-c4cc(F)cc(CNC(=O)c5noc(C(C)(C)C)n5)c4)c23)C1` [Example 88, 5-tert-butyl-N-{[3-fluoro-5-(3-{[(3R)-1-(prop-2-enoyl)pyrrolidin-3-yl]amino}-1H-pyrazolo[3,4-b]pyridin-4-yl)phenyl]methyl}-1,2,4-oxadiazole-3-carboxamide], the IC50 on Btk (setting [1]) was 287 nM; on panel of kinases it was 713 nM; against TEC, 2380 nM. Moreover, the TEC/Btk on TEC was determined as 8.
Regarding `Cn1c(C(=O)NCc2ccc(-c3ccnc4[nH]nc(N[C@@H]5CCNC5)c34)cc2F)cc2c1CC(C)(C)C2` [Example 157, N-{[2-fluoro-4-(3-{[(3R)-pyrrolidin-3-yl]amino}-1H-pyrazolo[3,4-b]pyridin-4-yl)phenyl]methyl}-1,5,5-trimethyl-1H,4H,5H,6H-cyclopenta[b]pyrrole-2-carboxamide], the IC50 at Btk (setting [1]), on panel of kinases and against TEC was greater than 10000 nM throughout.
On to `C=CC(=O)NC1CCN(c2n[nH]c3nccc(-c4ccc(CNC(=O)c5nc(C(C)(C)C)no5)c(F)c4)c23)CC1` [Example 179, 3-tert-butyl-N-[(2-fluoro-4-{3-[4-(prop-2-enamido)piperidin-1-yl]-1H-pyrazolo[3,4-b]pyridin-4-yl}phenyl)methyl]-1,2,4-oxadiazole-5-carboxamide], for which the IC50 was less than 10 nM on Btk (setting [2]), 0.0959 nM at Btk (setting [1]), 305 nM on panel of kinases and 220 nM against TEC. Besides, the TEC/Btk at TEC worked out at 2294.

As usually defined, the IC50 is the concentration needed to halve the response being measured.
